{
  "source": "patent US9675077B2",
  "about": "“Composition comprising antimicrobial metal ions and a quaternary cationic surfactant” (CONVATEC TECHNOLOGIES INC., priority 2011, dated 2017)",
  "key": {"[1]": {"test_system": "a range of microorganisms in the biofilm state"}, "[2]": {"test_system": "bacterial biofilms", "assay": "MBEC (Minimum Biofilm Eradication Concentration) assay using the Calgary Biofilm Device", "format": "cell-based", "conditions": "for MBEC for the metal ion, Without DDAC: metal ion solution alone, adjusted to approx. pH 5.5; for MBEC for the metal ion, Without DDAC / MBEC for the metal ion, With 0.1% DDAC: lowest concentration at which activity was observed, values approximate; for MBEC for the metal ion, With 0.1% DDAC: metal ion solution in combination with 0.1% DDAC, approx. pH 5.5; for Synergy: metal ion with 0.1% DDAC versus metal ion without DDAC"}},
  "data": [
    {"molecule": "O=C(O)CN(CCN(CC(=O)O)CC(=O)O)CC(=O)O", "note": "[EDTA, ethylenediaminetetra-acetic acid]", "values": [
      {"measurement": "EDTA concentration effective in making biofilm microorganisms vulnerable to antimicrobial agents", "setting": "[1]", "value": "0.25-0.5 % weight by volume"},
      {"measurement": "Effect of EDTA on the synergistic antimicrobial activity of cationic surfactant and metal ion", "setting": "[2]; […] w/w di-sodium EDTA in each test solution", "value": "further enhances the synergistic antimicrobial activity"}
    ]},
    {"molecule": "O=[N+]([O-])[O-].O=[N+]([O-])[O-].O=[N+]([O-])[O-].[Ga+3]", "note": "[Gallium, gallium (III) nitrate]", "values": [
      {"measurement": "MBEC for the metal ion, Without DDAC", "setting": "[2]", "value": ">1000", "unit": "ppm"},
      {"measurement": "MBEC for the metal ion, With 0.1% DDAC", "setting": "[2]", "value": "≦0.24 ppm"},
      {"measurement": "Synergy", "setting": "[2]", "value": "+ve"}
    ]},
    {"molecule": "O.O.O.O.O.O.O.O=S(=O)([O-])[O-].[Fe+2]", "note": "[Iron (II), iron (II) sulphate heptahydrate]", "values": [
      {"measurement": "MBEC for the metal ion, Without DDAC", "setting": "[2]", "value": ">1000", "unit": "ppm"},
      {"measurement": "MBEC for the metal ion, With 0.1% DDAC", "setting": "[2]", "value": "≦0.24 ppm"},
      {"measurement": "Synergy", "setting": "[2]", "value": "+ve"}
    ]},
    {"molecule": "O.O.O.O.[Cl][Mn][Cl]", "note": "[Manganese, manganese (II) chloride tetrahydrate]", "values": [
      {"measurement": "MBEC for the metal ion, Without DDAC", "setting": "[2]", "value": ">1000", "unit": "ppm"},
      {"measurement": "MBEC for the metal ion, With 0.1% DDAC", "setting": "[2]", "value": "≦0.24 ppm"},
      {"measurement": "Synergy", "setting": "[2]", "value": "+ve"}
    ]},
    {"molecule": "O=[N+]([O-])[O-].[Ag+]", "note": "[Silver, silver nitrate]", "values": [
      {"measurement": "Effectiveness against biofilms in the MBEC model", "setting": "[2]; 0.01% w/w silver, 0.1M acetate buffer, pH 4.7 to 7.7, no surfactant", "value": "None of the 0.01% silver solutions pH buffered in the range 4.7 to 7.7 were effective against biofilms"},
      {"measurement": "MBEC for the metal ion, Without DDAC", "setting": "[2]", "value": 12.5, "unit": "ppm"},
      {"measurement": "MBEC for the metal ion, With 0.1% DDAC", "setting": "[2]", "value": 0.097, "unit": "ppm"},
      {"measurement": "Synergy", "setting": "[2]", "value": "+ve"}
    ]},
    {"molecule": "copper (II) nitrate trihydrate", "values": [
      {"measurement": "MBEC for the metal ion, Without DDAC", "setting": "[2]", "value": 15.6, "unit": "ppm"},
      {"measurement": "MBEC for the metal ion, With 0.1% DDAC", "setting": "[2]", "value": 1.95, "unit": "ppm"},
      {"measurement": "Synergy", "setting": "[2]", "value": "+ve"}
    ]},
    {"molecule": "iron (III) sulphate hydrate", "values": [
      {"measurement": "MBEC for the metal ion, Without DDAC", "setting": "[2]", "value": ">1000", "unit": "ppm"},
      {"measurement": "MBEC for the metal ion, With 0.1% DDAC", "setting": "[2]", "value": "≦0.24 ppm"},
      {"measurement": "Synergy", "setting": "[2]", "value": "+ve"}
    ]},
    {"molecule": "zinc sulphate heptahydrate", "values": [
      {"measurement": "MBEC for the metal ion, Without DDAC", "setting": "[2]", "value": ">1000", "unit": "ppm"},
      {"measurement": "MBEC for the metal ion, With 0.1% DDAC", "setting": "[2]", "value": "≦125 ppm"},
      {"measurement": "Synergy", "setting": "[2]", "value": "+ve"}
    ]}
  ]
}
